Some test systems named below: 786-0 renal; BT-549 breast; EKVX NSCLC; HCT-116 colon; HOP-92 NSCLC; HS 578T breast; OVCAR-4 ovarian; SW-620 colon; SR leukemia; DMS 273 small cell lung; KM20L2 colon; SNB-78 CNS.
Common to all, as to test: NCI anticancer screen, dose series, 48 h

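Assay format: 96-well plates, 48-hour exposure. GI50 = concentration required for 50% inhibition of growth. TGI marks complete inhibition of growth.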

In the case of `O=[N+]([O-])c1ccc(/C=N\Nc2ccc([N+](=O)[O-])cn2)cc1`, the TGI in the assay with 786-0 renal, in the assay with BT-549 breast, with EKVX NSCLC, in the assay with HCT-116 colon, in the assay with HOP-92 NSCLC and in the assay on HS 578T breast was more than 100 µM each time. The TGI in the assay on OVCAR-4 ovarian and with SW-620 colon was more than 100 µM in each case.

On to `COc1ccc2[nH]c3c([N+](=O)[O-])ccc(Cl)c3c(=O)c2c1`, for which the TGI is 33.7 µM in the assay on 786-0 renal; 32.1 µM with BT-549 breast; more than 100 µM with EKVX NSCLC; 27.4 µM with HCT-116 colon; 29.7 µM with HOP-92 NSCLC; more than 100 µM in the assay with HS 578T breast. For the same molecule, the TGI in the assay with OVCAR-4 ovarian turned out to be 28.7 µM; in the assay with SW-620 colon it was 42.8 µM.

`C=C1CC23CCC4C(C)(C(=O)O)CCCC4(C)C2CCC1C3` (stereo not drawn): the TGI with 786-0 renal was more than 100 µM; in the assay on BT-549 breast it was more than 100 µM; in the assay on EKVX NSCLC, 75.5 µM; with HCT-116 colon, more than 100 µM; with HOP-92 NSCLC it was 94.3 µM; with HS 578T breast it was more than 100 µM. For the same molecule, the results for the TGI in the assay on OVCAR-4 ovarian, in the assay on SR leukemia and in the assay with SW-620 colon were more than 100 µM, 90.9 µM and more than 100 µM, respectively.

`c1ccc(-n2cnnc2-c2nsc3ccccc23)cc1`: the TGI with DMS 273 small cell lung, in the assay with EKVX NSCLC, with HCT-116 colon, with HOP-92 NSCLC, in the assay on KM20L2 colon and with OVCAR-4 ovarian was more than 100 µM throughout. The TGI in the assay on SNB-78 CNS and in the assay with SW-620 colon was more than 100 µM throughout.

Regarding `C/C1=N\NC(=O)c2ccccc2C(=O)N/N=C(\C)c2cccc1n2.O=[N+]([O-])[O-].[Zn+2]`, the TGI in the assay with 786-0 renal, in the assay on EKVX NSCLC, in the assay with HCT-116 colon, in the assay with KM20L2 colon, with OVCAR-4 ovarian and with SNB-78 CNS was more than 100 µM each time. In the assay on SW-620 colon, this molecule came in with a TGI of more than 100 µM.

With `COc1cc(C(C)(C)C)cc(OC)c1C(O)(c1c(OC)cc(C(C)(C)C)cc1OC)c1c(OC)cc(C(C)(C)C)cc1OC`, the GI50 in the assay on HCT-116 colon is 0.249 µM; in the assay with HS 578T breast, 0.711 µM; with OVCAR-4 ovarian, 0.307 µM; in the assay on SW-620 colon it was 0.406 µM. In addition, the TGI in the assay on HCT-116 colon stood at 0.901 µM; in the assay on OVCAR-4 ovarian, 1.06 µM; in the assay on SW-620 colon, 1.55 µM.

As for `O=C(O)CC(C(=O)O)C1c2ccccc2-c2ccccc21` (stereo not drawn), the TGI in the assay on 786-0 renal, with BT-549 breast, in the assay with EKVX NSCLC, with HCT-116 colon, in the assay with HS 578T breast and in the assay on OVCAR-4 ovarian was more than 100 µM throughout. Further, the TGI in the assay with SR leukemia and in the assay on SW-620 colon was more than 100 µM throughout.

In the case of `C=C(C)C1CC2=C(O1)C(=O)c1ccccc1C2=O` (stereo not drawn), the TGI was determined as 33.5 µM in the assay with DMS 273 small cell lung; 60.3 µM in the assay with EKVX NSCLC; 30.8 µM with HOP-92 NSCLC; 24 µM in the assay on OVCAR-4 ovarian; 39.9 µM in the assay with SNB-78 CNS; 48.4 µM in the assay with SW-620 colon.

In the case of `Nc1cc(S(=O)(=O)O)cc2cc(S(=O)(=O)O)c(N=Nc3ccc(-c4ccc(N=Nc5c(S(=O)(=O)O)cc6cc(S(=O)(=O)O)cc(N)c6c5O)cc4)cc3)c(O)c12`, the TGI in the assay with DMS 273 small cell lung, with EKVX NSCLC, with HCT-116 colon, with HOP-92 NSCLC, in the assay on KM20L2 colon and with OVCAR-4 ovarian was more than 100 µM each time. Further, the TGI with SNB-78 CNS and in the assay on SW-620 colon was more than 100 µM throughout.

With `C[C@H](C(=O)N[C@@H](Cc1ccc(-c2ccccc2)cc1)C(=O)NC1CC(C)(C)N(C)C(C)(C)C1)c1ccc(-c2ccccc2)c(F)c1`, the GI50 is 1.62 µM in the assay with BT-549 breast, 1.26 µM in the assay on HOP-92 NSCLC and 0.818 µM in the assay with OVCAR-4 ovarian. Besides, the TGI with BT-549 breast was 3.25 µM; in the assay with HOP-92 NSCLC it was 2.7 µM; in the assay with OVCAR-4 ovarian, 2.84 µM.

`C=C(C)[C@@H]1CC[C@]2(C(=O)Nc3ccccn3)CC[C@]3(C)[C@H](CC[C@@H]4[C@@]5(C)CCCNC(C)(C)[C@@H]5CC[C@]43C)[C@@H]12`: the GI50 with EKVX NSCLC was 1.06 µM; in the assay on HOP-92 NSCLC, 2.06 µM; with HS 578T breast, 1.92 µM; with OVCAR-4 ovarian it was 1.44 µM; with SW-620 colon, 1.75 µM. The TGI in the assay with EKVX NSCLC amounted to 2.53 µM; in the assay with HOP-92 NSCLC, 7.64 µM; in the assay on HS 578T breast it was 4.42 µM; in the assay on OVCAR-4 ovarian, 2.99 µM; in the assay on SW-620 colon, 3.51 µM.

For `OC(Cc1ccccc1)(Cc1ccccc1)c1ccccc1`, the TGI with 786-0 renal was determined as 29.6 µM; in the assay with BT-549 breast, 36.3 µM; with EKVX NSCLC, 38 µM; with HCT-116 colon, 35.8 µM; in the assay with HOP-92 NSCLC, 32.2 µM; in the assay on OVCAR-4 ovarian, 32.4 µM. The values for the TGI in the assay with SR leukemia and in the assay with SW-620 colon were 80.8 µM and 52.2 µM, respectively.

As to `COc1ccc(-c2nn(-c3ccc(NC(=O)Nc4ccc(Cl)c(Cl)c4)cc3)cc2-c2ccncc2)cc1Cl`, the GI50 with EKVX NSCLC was 2.18 µM; in the assay on HCT-116 colon, 1.65 µM; in the assay on HOP-92 NSCLC, 1.82 µM; in the assay with HS 578T breast, 1.42 µM; in the assay with OVCAR-4 ovarian, 1.79 µM; in the assay with SR leukemia, 2.65 µM. Also, in the assay on SW-620 colon, the GI50 was 3.31 µM. In addition, the TGI with EKVX NSCLC is more than 100 µM; in the assay with HCT-116 colon it was 11.7 µM; in the assay on HOP-92 NSCLC, 5.72 µM; with HS 578T breast it was 7.63 µM; in the assay on OVCAR-4 ovarian, more than 100 µM; with SR leukemia, 35.6 µM. This molecule returned a TGI in the assay with SW-620 colon of more than 100 µM.

Turning to `C[N+]1(C)CCOC(O)(c2ccccc2)C1` (stereo not drawn), the TGI in the assay on 786-0 renal, in the assay on BT-549 breast, in the assay with EKVX NSCLC, with HCT-116 colon, in the assay with HOP-92 NSCLC and in the assay with HS 578T breast was more than 100 µM in each case. Besides, the TGI with OVCAR-4 ovarian, in the assay on SR leukemia and in the assay with SW-620 colon was more than 100 µM throughout.

Turning to `Cc1ccc(P(c2ccc(C)cc2)c2ccc(C)cc2)cc1`, the TGI was more than 100 µM with BT-549 breast; more than 100 µM with EKVX NSCLC; 28.2 µM in the assay with HCT-116 colon; 20.8 µM in the assay on HOP-92 NSCLC; 57 µM in the assay with HS 578T breast; 80.3 µM with OVCAR-4 ovarian. Further, the TGI in the assay on SW-620 colon is more than 100 µM.

Turning to `CCN(CC)C(=S)SC(=S)N(CC)CC`, the TGI was 56.3 µM in the assay with 786-0 renal; 77.4 µM in the assay with BT-549 breast; more than 100 µM in the assay with EKVX NSCLC; more than 58.3 µM with HCT-116 colon; more than 87.3 µM with HOP-92 NSCLC; more than 100 µM in the assay with HS 578T breast. Moreover, the TGI with OVCAR-4 ovarian and in the assay on SW-620 colon was more than 100 µM throughout.

Turning to `CC(C)(C)C1(c2ccc(C3(c4ccccc4)Oc4ccccc4S3)[nH]2)Oc2ccccc2S1` (stereo not drawn), the TGI in the assay with DMS 273 small cell lung, with EKVX NSCLC, in the assay on HCT-116 colon, in the assay with HOP-92 NSCLC, with KM20L2 colon and in the assay with SNB-78 CNS was more than 100 µM in each case. The molecule also had a TGI with SW-620 colon of more than 100 µM.

`O=Nc1ccc(O)c2ncccc12`: the TGI in the assay with 786-0 renal was 14.7 µM; in the assay with BT-549 breast it was 23 µM; in the assay on DMS 273 small cell lung, 10.3 µM; in the assay with EKVX NSCLC, 5.8 µM; with HCT-116 colon, 3.04 µM; in the assay with HOP-92 NSCLC it was 11.9 µM. Besides, the TGI is 3.66 µM with HS 578T breast; 89.9 µM with KM20L2 colon; 24.1 µM with OVCAR-4 ovarian; 11.4 µM in the assay on SNB-78 CNS; more than 100 µM with SR leukemia; 18.2 µM in the assay on SW-620 colon.

On to `COC1/C=C\OC2(C)Oc3c(C)c(O)c4c(O)c(c(/C=N\OCCCc5ccccc5)c(O)c4c3C2=O)NC(=O)/C(C)=C\C=C/C(C)C(O)C(C)C(O)C(C)C(OC(C)=O)C1C` (stereo not drawn), for which the TGI in the assay on 786-0 renal was found to be 9.81 µM; with EKVX NSCLC, 17.7 µM; in the assay on HCT-116 colon, 5.26 µM; in the assay with HOP-92 NSCLC, 6.26 µM; in the assay with HS 578T breast, 25.2 µM; in the assay with OVCAR-4 ovarian it was 12.6 µM. Moreover, the results for the TGI with SR leukemia and in the assay with SW-620 colon were 5.98 µM and 18 µM, respectively.

Take `N=C(N)c1ccc(-c2ccc(-c3cncc4ccccc34)s2)cc1F`: in the assay with SW-620 colon, the GI50 is 1.69 µM and the TGI was 3.76 µM.

As to `C=C(C)C(=O)OC1C(C(C)CCCO)=C(CO)CC2OC(=O)C(=C)C21` (stereo not drawn), the TGI is 25.9 µM in the assay with 786-0 renal; 34.7 µM in the assay on BT-549 breast; 87.2 µM in the assay with EKVX NSCLC; 32.2 µM with HCT-116 colon; 44.2 µM in the assay with HOP-92 NSCLC; more than 100 µM in the assay with HS 578T breast. Moreover, the TGI is more than 100 µM with OVCAR-4 ovarian, more than 100 µM in the assay with SR leukemia and 28.8 µM in the assay on SW-620 colon.

Consider `Nc1ccc(OCC(O)N2C(=O)c3ccccc3C2=O)cc1` (stereo not drawn), for which the TGI in the assay on EKVX NSCLC, in the assay with HCT-116 colon, in the assay with OVCAR-4 ovarian and in the assay with SW-620 colon was more than 100 µM in each case.

These data come from PubChem BioAssay (NCI).
